Experimental data from patent US20060276525A1, “Processes of preparing highly pure telmisartan form A, suitable for pharmaceutical compositions” (priority 2005, published 2006).
Where two headings read alike, the source gives them in different places.

Tests used:
Format in all cases: physicochemical
[1] = Average particle size measurement (Malvern Mastersizer 2000, particle size distribution); conditions: for Particle size distribution D(v,0.1) / Particle size distribution D(v,0.2) / Particle size distribution D(v,0.8) / Particle size distribution D(v,0.95) / Particle size distribution D(v,0.98) / Particle size distribution D(v,1.0) / Particle size distribution D(v,0.5) / Particle size distribution D(v,0.9): carrier liquid water; for Particle size distribution D(v,0.5): size for 50% of the particles; for Particle size distribution D(v,0.9): size for 90% of the particles; for D(V, 0.9): in µm (unit assumed)
Procedure: Average Particle Size Measurement: Particle size was measured by Malvern model Mastersizer 2000, equipped with Malvern Hydro G circulation cell. Carrier: liquid:water. System description: Measuring range: from 0.02-2000 μm. Accuracy: 1% on the Dv50 Light sources: Red light-helium neon laser. Blue light-solid state light source.

[2] = Bulk density (tapped density tester VanKel 50-2300)
Procedure: Bulk Density: Bulk density was measured using tapped density tester dual-platform model VanKel 50-2300 (Varian Inc.). System specifications. Speed: nominal rate of 300 taps per minute, Accuracy: Actual setting±1 tap, Drop height: 14±2 mm. Platform rotation: 5-15 rotations/minute.

[3] = Flowability / electrostatic charging of the ground material; conditions: ground by conventional mill
[4] = listed as Telmisartan form A, obtained by crystallization from DMSO
[5] = listed as Telmisartan form A, obtained by crystallization from water
[6] = Sonicated material with no milling

For CCCc1nc2c(C)cc(-c3nc4ccccc4n3C)cc2n1Cc1ccc(-c2ccccc2C(=O)O)cc1 [Example 1, Telmisartan], the “Particle size distribution D(v,0.1)” value [1] was 1.60 μ, the “Particle size distribution D(v,0.2)” value [1] was 2.25 μ and the “Particle size distribution D(v,0.8)” value [1] was 11.46 μ. For the same compound, the “Particle size distribution D(v,0.95)” value [1] was 22.21 μ, the “Particle size distribution D(v,0.98)” value [1] was 29.03 μ and the “Particle size distribution D(v,1.0)” value [1] was 52.87 μ. The “Particle size distribution D(v,0.5)” value [1] was 4.98 μ, the “Particle size distribution D(v,0.5)” value [1, 4] was “about 5 μ” and the “Particle size distribution D(v,0.9)” value [1] was 16.78 μ. For the same compound, the “Particle size distribution D(v,0.9)” value [1, 4] was “about 17 μ”, the Bulk density [2] was “about 0.3 g/ml” and the Bulk density [2, 4] was “about 0.3 g/ml”. The “Flowability of ground material” value [3] was “free flowing crystalline powder that does not tend to gain electrostatic charge upon grinding”.

For CCCc1nc2c(C)cc(-c3nc4ccccc4n3C)cc2n1Cc1ccc(-c2ccccc2C(=O)O)cc1 [Example 2, Telmisartan], the “Particle size distribution D(v,0.1)” value [1] was 0.35 μ, the “Particle size distribution D(v,0.2)” value [1] was 0.85 μ and the “Particle size distribution D(v,0.8)” value [1] was 11.90 μ. For the same compound, the “Particle size distribution D(v,0.95)” value [1] was 23.03 μ, the “Particle size distribution D(v,0.98)” value [1] was 30.08 μ and the “Particle size distribution D(v,1.0)” value [1] was 52.871 μ. The “Particle size distribution D(v,0.5)” value [1] was 4.33 μ, the “Particle size distribution D(v,0.5)” value [1, 5] was “about 4.3 μ” and the “Particle size distribution D(v,0.9)” value [1] was 17.48 μ. The “Particle size distribution D(v,0.9)” value [1, 5] was “about 17.5 μ” and the Bulk density [2, 5] was “about 0.22 g/ml”.

With CCCc1nc2c(C)cc(-c3nc4ccccc4n3C)cc2n1Cc1ccc(-c2ccccc2C(=O)O)cc1 [Example 4, Telmisartan] the “Particle size distribution D(v,0.1)” value [1] was 1.08 μ, the “Particle size distribution D(v,0.2)” value [1] was 1.45 μ and the “Particle size distribution D(v,0.8)” value [1] was 6.04 μ. The “Particle size distribution D(v,0.95)” value [1] was 12.07 μ, the “Particle size distribution D(v,0.98)” value [1] was 16.13 μ and the “Particle size distribution D(v,1.0)” value [1] was 33.57 μ. The “Particle size distribution D(v,0.5)” value [1] was 2.83 μ, the “Particle size distribution D(v,0.5)” value ([1]; listed as Telmisartan form A, obtained by crystallization from DMF) was “less than 3 μ” and the “Particle size distribution D(v,0.9)” value [1] was 8.97 μ.

With CCCc1nc2c(C)cc(-c3nc4ccccc4n3C)cc2n1Cc1ccc(-c2ccccc2C(=O)O)cc1 [Example 7, Telmisartan] the D(V, 0.1) ([1]; Ground material) was 0.7 µm, the D(V, 0.5) ([1]; Ground material) was 3.3 µm and the “D(V, 0.9)” value ([1]; Ground material) was 19.1. The D(V, 0.1) [1, 6] was 0.8 µm, the D(V, 0.5) [1, 6] was 8.1 µm and the “D(V, 0.9)” value [1, 6] was 24.7. The D(V, 0.1) ([1]; Un-milled material) was 51.4 µm, the D(V, 0.5) ([1]; Un-milled material) was 245 µm and the “D(V, 0.9)” value ([1]; Un-milled material) was 578.2.
